Data: patent publication US20210371385A1, “POLYMORPHIC AND AMORPHOUS FORMS OF ISOQUINOLINONE AND METHODS OF USE THEREOF” (Sojournix, Inc., priority 2018, published 2021)
Values after ≈ are worked out from the molar mass of the structure shown. Read-outs that look alike come from different tables or passages of the source.

Assays:
[1] = pKa measured by titration (Example 3); format: physicochemical; conditions: measurable detection limit of 2
Procedure: The pKa value was measured by titration.

[2] = Absorption of solid compound dosed orally in rats; format: in vivo, Sprague Dawley rats; conditions: for bioavailability: Sprague Dawley, rat, in vivo, oral microsuspension, read-out: Absolute bioavailability
Procedure: The possibility of dosing SJB-01 orally as a solid was explored in rats, as a means to evaluate the developability of the compound. Clinical relevant doses (1, 5 and 10 mg/kg) were administered to rats as microsuspensions. Furthermore, to explore the role of particle size, a suspension (5 mg/kg) was administered as well for comparison.

[3] = Maximal absorbable dose (MAD) calculation; set-up: species or system humans
Procedure: The maximal absorbable dose (MAD) of SJB-01, as described by Curatolo (1998), can be calculated according to the following equation: […]
Using this equation, the maximal absorbable dose is 16 mg for SJB-01.

[4] = pKa determination, co-solvent potentiometric titration (Yasuda-Shedlovsky extrapolation); format: physicochemical; conditions: 25.4 °C, MeOH co-solvent potentiometric, extrapolated to 0% co-solvent
Procedure: pKa determination and assignment was completed on SJB-01 (FIG. 1). About 2 mg of SJB-01 (100142-1-1) was titrated three times with varying concentrations of MeOH as co-solvent to generate a Yasuda-Shedlovsky plot (L100142-65-4, FIG. 2 and Table 1). Extrapolation of the Yasuda-Shedlovsky plot to 0% co-solvent determined the pKa's (FIG. 3), which are acidic 5.76, basic 3.03. Acidic pKa is in red and basic pKa is in blue.
(§1) pKa and log P/D data were collected using Pion PULSE Attain software. The Pion PULSE solutions consisted of using ionic strength adjusted water (0.15 M KCl), 0.5 M HCl and […] which were used for all titrations. Purge gas (argon) was used for HEPES (probe validation), KHP (KOH concentration determination), aqueous potentiometric and log P/D potentiometric titrations.
(§2) The Pion PULSE was equipped with an overhead variable speed stirrer, double junction Ag/AgCl pH probe, UV probe with a 1 cm pathlength, Carl-Zeiss spectrophotometer with 256-bit photodiode array, and a temperature probe. The pH of the instrument can range from 1.8-12.2. The compatible co-solvents are MeOH, EtOH, ACN, DMSO and 1,4-dioxane. pKa measurements were completed by either potentiometric or UV-metric methods. log P/D was measured using water saturated 1-octanol as the partitioning solvent. Data was refined using the Pion PULSE refine software.

[5] = Intrinsic Dissolution Rate (IDR); format: physicochemical; conditions: FeSSIF media, presence of bile components
Procedure: The Intrinsic Dissolution Rate (IDR) was calculated for a beta polymorph form of SJB-01. A tablet of the compound was pressed and put into a dissolution chamber. It was subsequently measured how fast the substance was dissolved from the surface into the solvent. Initially, the experiment was performed in a standard buffer (0.001 M HCl pH 3.0), reflecting the stomach conditions at fastened state.
Due to the high impact of bile components on solubilisation of SJB-01, IDR was performed in FeSSIF media, reflecting the fed-state in humans.

[6] = in vivo, 140 mg/kg
Procedure: Formulations for toxicological evaluation of SJB-01 were considered. The highest solubility was obtained with 100% PEG 400 and a mixture of Gelucire and PEG 400. Since a formulation with Gelucire:PEG required increased handling time, including dosing at ˜45° C., 100% PEG 400 was chosen for formulation purpose in the early toxicological evaluation including mini-MTD (maximum tolerated dose) and a 14 days toxicological dosing study. The maximum dose reached was 140 mg/kg-the highest possible dose achievable with PEG 400 as vehicle. […] From a formulation perspective, this can only be done by using Gelucire:PEG as a vehicle, under the assumption that a solution will lead to a higher bioavailability than dosing the compound in a PEG 400 suspension. In the table below, the maximum dose of SJB-01 given on a solubilized form is provided, taking into account the tolerated dose of the vehicle as well.

[7] = Log P/D7.4 by shake flask method, octanol-buffer; format: physicochemical; conditions: pH 7.4, octanol-buffer two phase system
Procedure: The Log P/D7.4 value was determined by the shake flask method in an octanol-buffer two phase systems.

[8] = Log P/D determination, pH-metric titration with 1-octanol; format: physicochemical
Procedure: Log P and log D were determined for SJB-01 free base using 1-octanol as the partition solvent (Table 2). Log P was experimentally determined to be 4.73 which is larger than the predicted value for the structure, the corresponding Bjerrum plot is shown in FIG. 6. A log D profile (FIG. 5) was constructed for SJB-01 based on the distribution of the API at a particular pH.
as §1, §2

[9] = Chemical stability (oxygen, pH, light, PEG 400); format: physicochemical
[10] = Solubility by gravimetric method in 14 solvents; format: physicochemical; conditions: for solubility at 2 days: organic solvent or mixture, thermodynamic from solid; for Solubility: Water:DMSO (9:1 vol)
Procedure: Solubility measurements were done by gravimetric method in 14 different solvents at two temperatures (23° C. and 50° C.). About 25-35 mg solid was dispensed in 2 mL vials and 0.75 mL solvent was added to form a slurry. The slurries were then stirred for two days. The vials were centrifuged and the supernatant was collected for solubility measurement by gravimetric method.

For CCNn1c(C)c(C(=O)N[C@H](c2ccccc2)C2CC2)c2cccc(F)c2c1=O [SJB-01, 2-Ethylamino-8-fluoro-3-methyl-1-oxo-1,2-dihydro-isoquinoline-4-carboxylic acid ((S)-cyclopropyl-phenyl-methyl)-amide], the pKa [1] was less than 2, the bioavailability ([2]; 10 mg/kg) was roughly 30% and the bioavailability ([2]; 1 and 5 mg/kg) was roughly 20%. For the same compound, the “Bioavailability, comparison of particle size” value ([2]; oral, 5 mg/kg, particle size 10 and 50 μm) was “no differences in bioavailability”, the “Maximal absorbable dose (MAD)” value ([3]; MAD=S*Ka*SIWV*SITT, S solubility at pH 6.5) was 16 mg and the “Maximal absorbable dose (MAD)” value ([3]; humans, solubility in 0.001M HCl pH 3.0, data from the β-form) was 16 mg. For the same compound, the “Maximal absorbable dose (MAD)” value ([3]; humans, solubility in FaSSIF, data from the β-form) was 22 mg, the “Maximal absorbable dose (MAD)” value ([3]; humans, solubility in FeSSIF (fed state), data from the β-form) was 38 mg and the “pKa (acidic)” value ([4]; acidic) was 5.76. For the same compound, the pKa ([4]; acidic, read-out: pKa (acidic)) was 5.83 ± 0.11, the pKa ([4]; basic, read-out: pKa (basic)) was 3.03 ± 0.11 and the “IDR in FeSSIF media versus standard buffer” value [5] was “not further increased”. For the same compound, the “Clinical observations at maximum dose reached” value [6] was “no clinical observations”, the logP [7] was 3.3 and the logD ([8]; 1-octanol/water, pH 7.4, pH 7.40, 1-octanol, from log D profile, read-out: log D7.40) was 3.04. The logP ([8]; neutral species, 1-octanol:water, 25.3 °C, pH-metric, three titrations) was 4.73 ± 0.14, the “Time stable in PEG 400” value ([9]; PEG 400, room temperature, covered from light) was “at least 4 months” and the Compound decomposed ([9]; aqueous solution, extreme light exposure, 24 hr) was 100%. The “Stability to oxygen and pH” value ([9]; exposed to oxygen and pH 2, 4, 6, and 7.4) was “stable”, the Compound left ([9]; solid compound, extreme light exposure, 24 hr) was roughly 86% and the solubility at 2 days ([10]; ACN, 23 °C) was 62 mg/mL (≈ 158 mM). For the same compound, the solubility at 2 days ([10]; ACN, 50 °C) was 99 mg/mL (≈ 252 mM), the solubility at 2 days ([10]; EtOAc, 23 °C) was 42 mg/mL (≈ 107 mM) and the solubility at 2 days ([10]; EtOAc, 50 °C) was 67 mg/mL (≈ 170 mM). It also gave a solubility at 2 days ([10]; EtOH, 23 °C) greater than 42 mg/mL, a solubility at 2 days ([10]; IPA:water (85:15 vol), 23 °C) of 27 mg/mL (≈ 68.6 mM) and a solubility at 2 days ([10]; IPA:water (85:15 vol), 50 °C) of 60 mg/mL (≈ 152 mM). The solubility at 2 days ([10]; IPAc, 23 °C) was 22 mg/mL (≈ 55.9 mM), the solubility at 2 days ([10]; IPAc, 50 °C) was 37 mg/mL (≈ 94 mM) and the solubility at 2 days ([10]; MIBK, 23 °C) was 40 mg/mL (≈ 102 mM). The solubility at 2 days ([10]; MIBK, 50 °C) was 61 mg/mL (≈ 155 mM), the solubility at 2 days ([10]; MtBE, 23 °C) was 8 mg/mL (≈ 20.3 mM) and the solubility at 2 days ([10]; MtBE, 50 °C) was 11 mg/mL (≈ 28 mM). For the same compound, the solubility at 2 days ([10]; THF, 23 °C) was greater than 68 mg/mL, the solubility at 2 days ([10]; THF, 50 °C) was greater than 68 mg/mL and the Solubility ([10]; 23 °C) was “Nil”. For the same compound, the Solubility ([10]; 50 °C) was “Nil”, the solubility at 2 days ([10]; acetic acid, 23 °C) was greater than 72 mg/mL and the solubility at 2 days ([10]; acetic acid, 50 °C) was greater than 72 mg/mL. It also gave a solubility at 2 days ([10]; acetone, 23 °C) greater than 67 mg/mL, a solubility at 2 days ([10]; acetone, 50 °C) greater than 67 mg/mL and a solubility at 2 days ([10]; dioxane, 23 °C) greater than 74 mg/mL. It also gave a solubility at 2 days ([10]; dioxane, 50 °C) greater than 74 mg/mL, a solubility at 2 days ([10]; ethanol, EtOH, 50 °C) greater than 42 mg/mL and a solubility at 2 days ([10]; isopropanol (IPA), IPA, 23 °C) of 29 mg/mL (≈ 73.7 mM). It also gave a solubility at 2 days ([10]; isopropanol (IPA), IPA, 50 °C) of 64 mg/mL (≈ 163 mM), a solubility at 2 days ([10]; MeOH, 23 °C, lot L100142-1-1) greater than 76 mg/mL and a solubility at 2 days ([10]; MeOH, 50 °C, lot L100142-1-1) greater than 76 mg/mL.
